Laboratory results reported in ChEMBL document CHEMBL1201862, “PubChem BioAssay data set” (2004).
Activity calls are given as the source filed them.

What was measured:
[1] = target: T1, Estrogen receptor (Homo sapiens, UniProt P03372); assay: ERα coactivator recruitment enhancers – biochemical, TR-FRET, ERα LBD, dose response (AID 737)
T1 sequence (P03372 whole entry): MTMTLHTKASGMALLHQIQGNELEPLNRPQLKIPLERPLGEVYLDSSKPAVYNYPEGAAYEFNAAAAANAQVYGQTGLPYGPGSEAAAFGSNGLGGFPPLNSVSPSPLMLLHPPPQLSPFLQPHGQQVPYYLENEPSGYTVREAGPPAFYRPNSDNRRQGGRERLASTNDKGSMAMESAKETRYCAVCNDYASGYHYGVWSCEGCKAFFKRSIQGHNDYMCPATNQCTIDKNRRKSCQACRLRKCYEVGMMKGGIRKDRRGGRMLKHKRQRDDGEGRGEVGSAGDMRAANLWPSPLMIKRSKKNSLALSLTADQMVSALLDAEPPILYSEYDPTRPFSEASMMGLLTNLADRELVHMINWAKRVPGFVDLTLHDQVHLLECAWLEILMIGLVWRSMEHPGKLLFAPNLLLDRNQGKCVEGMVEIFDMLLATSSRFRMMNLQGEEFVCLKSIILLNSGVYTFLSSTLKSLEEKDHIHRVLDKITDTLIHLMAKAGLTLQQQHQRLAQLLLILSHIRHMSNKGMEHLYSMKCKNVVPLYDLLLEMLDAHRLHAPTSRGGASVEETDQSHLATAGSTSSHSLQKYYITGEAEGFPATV

[2] = Luminescence Cell-Based Dose Response to Identify Activators of Luciferase Translation or Activity in H4-C Neuroglioblastoma Cells. [Related pubchem assays: 1829 (Project Summary), 1814 (Primary HTS)]; format: functional
[3] = Luminescence Cell-Based Dose Confirmation to Identify Activators of 5'UTR Stem-Loop Driven Alpha-Synuclein mRNA Translation in H4 Neuroglioblastoma Cells. [Related pubchem assays: 1829 (Project Summary), 1814 (Primary HTS)]; format: functional
[4] = Luminescence Cell-Based Dose Response HTS to Identify Activators of Luciferase Translation or Activity in H4 […] Cells. [Related pubchem assays: 1829 (Project Summary), 1814 (Primary HTS)]; format: functional
[5] = tested on: H4; assay: Luminescence Cell-Based Dose Response HTS to Identify Activators of 5'UTR Stem-Loop Driven Prion Protein mRNA Translation in H4 Neuroglioblastoma Cells. [Related pubchem assays: 1829 (Project Summary), 1814 (Primary HTS)]; format: functional; settings: Homo sapiens
[6] = Luminescence Cell-Based Dose Response to Identify Activators of 5'UTR Stem-Loop Driven Prion Protein mRNA Translation in H4-C Neuroglioblastoma Cells. [Related pubchem assays: 1829 (Project Summary), 1814 (Primary HTS)]; format: functional
[7] = target: T2, Streptokinase A (Streptococcus pyogenes serotype M1, UniProt P10520); assay: viability-normalized secreted streptokinase activity reduction – plasminogen activation absorbance, OD405, dose response (AID 1914); format: functional, Streptococcus pyogenes M1 GAS;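 note: secreted streptokinase activity via plasminogen activation per viability signal from cell pellet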
T2 sequence (P10520 whole entry): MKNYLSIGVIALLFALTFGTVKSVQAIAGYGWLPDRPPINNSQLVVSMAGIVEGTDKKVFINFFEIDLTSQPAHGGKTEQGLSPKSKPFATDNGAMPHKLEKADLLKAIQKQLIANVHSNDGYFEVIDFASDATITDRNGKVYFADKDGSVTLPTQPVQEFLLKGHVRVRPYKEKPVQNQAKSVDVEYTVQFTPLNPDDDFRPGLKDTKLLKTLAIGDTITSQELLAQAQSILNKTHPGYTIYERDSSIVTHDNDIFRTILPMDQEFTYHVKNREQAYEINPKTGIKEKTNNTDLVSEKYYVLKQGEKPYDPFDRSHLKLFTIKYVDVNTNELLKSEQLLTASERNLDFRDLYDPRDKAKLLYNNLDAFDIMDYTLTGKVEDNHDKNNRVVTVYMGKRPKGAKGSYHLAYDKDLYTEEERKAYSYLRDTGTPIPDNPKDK

[8] = target: Aryl hydrocarbon receptor (Homo sapiens, UniProt P35869); assay: Luminescence-based cell-based high throughput dose response assay for activators of the Aryl Hydrocarbon Receptor (AHR). [Related pubchem assays: 2796 (Primary screen (AHR activators in singlicate)), 2845 (Confirmation screen (AHR activators in triplicate)), 434939 (Counterscreen (PXR activators in triplicate)), 2804 (Summary (AHR activators))]; format: ADME
Aryl hydrocarbon receptor, sequence (P35869 whole entry): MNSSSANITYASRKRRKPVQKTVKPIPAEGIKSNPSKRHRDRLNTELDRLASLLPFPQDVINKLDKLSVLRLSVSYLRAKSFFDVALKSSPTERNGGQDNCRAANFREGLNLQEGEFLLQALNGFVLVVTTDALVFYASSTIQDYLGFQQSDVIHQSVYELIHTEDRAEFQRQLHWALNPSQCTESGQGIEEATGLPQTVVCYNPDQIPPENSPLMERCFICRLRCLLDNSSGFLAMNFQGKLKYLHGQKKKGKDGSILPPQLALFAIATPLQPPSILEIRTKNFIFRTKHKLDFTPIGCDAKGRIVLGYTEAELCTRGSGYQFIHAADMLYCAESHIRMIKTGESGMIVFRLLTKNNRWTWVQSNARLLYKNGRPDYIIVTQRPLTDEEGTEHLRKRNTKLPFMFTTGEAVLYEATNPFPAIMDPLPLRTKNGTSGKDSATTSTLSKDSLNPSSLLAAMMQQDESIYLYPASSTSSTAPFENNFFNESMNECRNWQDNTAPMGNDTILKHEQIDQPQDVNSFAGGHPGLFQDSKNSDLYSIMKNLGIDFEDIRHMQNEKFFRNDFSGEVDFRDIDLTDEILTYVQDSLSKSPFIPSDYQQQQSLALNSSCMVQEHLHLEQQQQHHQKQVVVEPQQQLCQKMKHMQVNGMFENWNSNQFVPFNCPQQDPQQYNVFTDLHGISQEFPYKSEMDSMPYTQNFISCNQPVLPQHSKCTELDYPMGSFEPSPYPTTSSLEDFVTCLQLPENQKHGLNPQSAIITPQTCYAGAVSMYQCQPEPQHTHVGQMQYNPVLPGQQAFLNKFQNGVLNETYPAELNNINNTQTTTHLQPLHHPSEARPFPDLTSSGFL

[9] = target: T3, E3 ubiquitin-protein ligase XIAP (Homo sapiens, UniProt P98170); assay: Counter Screen using XIAP-Bir3 for Chemical Antagonists of Bir1/2 domains of IAP-family anti-apoptotic proteins. [Related pubchem assays (depositor defined):AID1018, AID1449, AID1514, AID1638, AID1749, AID1750, AID488957, AID488963]
T3 sequence (P98170 whole entry): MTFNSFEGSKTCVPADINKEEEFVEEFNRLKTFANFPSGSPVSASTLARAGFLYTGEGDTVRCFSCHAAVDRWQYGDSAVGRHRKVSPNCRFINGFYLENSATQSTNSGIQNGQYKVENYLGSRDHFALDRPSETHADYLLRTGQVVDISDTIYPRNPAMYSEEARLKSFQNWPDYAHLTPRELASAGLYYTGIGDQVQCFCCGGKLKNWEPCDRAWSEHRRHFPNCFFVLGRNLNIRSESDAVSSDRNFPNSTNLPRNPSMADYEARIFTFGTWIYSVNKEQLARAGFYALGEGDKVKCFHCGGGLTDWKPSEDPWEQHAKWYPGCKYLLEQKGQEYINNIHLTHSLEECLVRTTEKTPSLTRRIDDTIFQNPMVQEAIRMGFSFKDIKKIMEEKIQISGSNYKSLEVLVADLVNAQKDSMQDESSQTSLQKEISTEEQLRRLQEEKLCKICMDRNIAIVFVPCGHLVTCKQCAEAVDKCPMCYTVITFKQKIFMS

[10] = target: T3, E3 ubiquitin-protein ligase XIAP; assay: small molecules displacing peptide from XIAP – biochemical, IAP family, fluorescence polarization (AID 1018); format: functional
[11] = Luminescence Cell-Based Dose Confirmation HTS to Identify Activators of 5'UTR Stem-Loop Driven Alpha-Synuclein mRNA Translation in H4 Neuroglioblastoma Cells. [Related pubchem assays: 1829 (Project Summary), 1814 (Primary HTS)]; format: functional
[12] = target: Procathepsin L (Homo sapiens, UniProt P07711); assay: CTSL1 protease inhibition – biochemical, QFRET, 1536-well, counter-screen for M1/M17 aminopeptidase inhibitor project, dose response (AID 2214)
Procathepsin L, sequence (P07711 whole entry): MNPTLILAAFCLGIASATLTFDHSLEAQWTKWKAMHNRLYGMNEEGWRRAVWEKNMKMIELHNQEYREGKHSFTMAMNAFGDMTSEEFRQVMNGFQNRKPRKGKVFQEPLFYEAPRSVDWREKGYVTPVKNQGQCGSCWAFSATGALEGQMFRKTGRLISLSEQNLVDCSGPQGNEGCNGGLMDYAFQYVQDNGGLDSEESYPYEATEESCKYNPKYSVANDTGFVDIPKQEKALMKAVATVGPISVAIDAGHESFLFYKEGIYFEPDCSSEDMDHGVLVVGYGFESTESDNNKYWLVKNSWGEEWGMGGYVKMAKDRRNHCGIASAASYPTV

[13] = target: T4, Aminopeptidase N (Plasmodium falciparum FcB1/Columbia, UniProt O96935); assay: malaria alanyl aminopeptidase activity blockers – biochemical, fluorogenic H-Leu-NHMec substrate, 1536-well (AID 1445); parameters: species or system Plasmodium falciparum 3D7, 3D7
T4 sequence (O96935 whole entry): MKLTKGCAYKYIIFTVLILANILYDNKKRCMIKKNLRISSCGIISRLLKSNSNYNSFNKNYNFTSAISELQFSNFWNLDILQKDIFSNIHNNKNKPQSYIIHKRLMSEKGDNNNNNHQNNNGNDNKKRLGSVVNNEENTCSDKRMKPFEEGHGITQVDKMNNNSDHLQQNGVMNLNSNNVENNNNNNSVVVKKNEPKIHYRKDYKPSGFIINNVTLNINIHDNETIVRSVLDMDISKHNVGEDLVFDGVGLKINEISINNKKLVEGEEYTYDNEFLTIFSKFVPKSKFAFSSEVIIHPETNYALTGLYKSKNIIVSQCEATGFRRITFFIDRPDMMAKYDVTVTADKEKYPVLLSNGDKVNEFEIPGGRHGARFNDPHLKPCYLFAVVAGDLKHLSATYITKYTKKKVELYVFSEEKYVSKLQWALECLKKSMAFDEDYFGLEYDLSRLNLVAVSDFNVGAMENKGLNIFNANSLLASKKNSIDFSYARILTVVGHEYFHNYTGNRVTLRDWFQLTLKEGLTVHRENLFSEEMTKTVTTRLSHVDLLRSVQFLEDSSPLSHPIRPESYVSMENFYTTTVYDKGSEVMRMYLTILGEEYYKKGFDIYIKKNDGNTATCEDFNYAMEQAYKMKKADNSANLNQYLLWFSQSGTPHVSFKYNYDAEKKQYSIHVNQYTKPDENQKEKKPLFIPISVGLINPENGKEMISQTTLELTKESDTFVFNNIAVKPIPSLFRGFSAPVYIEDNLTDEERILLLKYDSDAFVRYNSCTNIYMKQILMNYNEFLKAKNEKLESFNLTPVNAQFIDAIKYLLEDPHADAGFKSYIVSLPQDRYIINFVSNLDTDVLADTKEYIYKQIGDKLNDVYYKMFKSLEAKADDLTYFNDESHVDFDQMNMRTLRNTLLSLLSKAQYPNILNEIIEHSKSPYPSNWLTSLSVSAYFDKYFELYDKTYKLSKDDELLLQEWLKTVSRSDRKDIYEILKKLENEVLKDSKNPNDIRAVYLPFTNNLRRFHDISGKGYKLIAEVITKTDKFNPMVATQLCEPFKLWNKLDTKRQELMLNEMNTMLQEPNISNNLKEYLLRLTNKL

[14] = target: Aspartyl aminopeptidase (Plasmodium falciparum 3D7, UniProt Q8I2J3); assay: Counterscreen for inhibitors of M1 and M17 aminopeptidases: QFRET-based biochemical high throughput dose response assay for inhibitors of the Plasmodium falciparum M18 Aspartyl Aminopeptidase (PFM18AAP). [Related PubChem assays: 1619 (Screening assay (M17LAP inhibitors).), 1445 (Screening assay (M1AAP inhibitors).)]
Aspartyl aminopeptidase, sequence (Q8I2J3 whole entry): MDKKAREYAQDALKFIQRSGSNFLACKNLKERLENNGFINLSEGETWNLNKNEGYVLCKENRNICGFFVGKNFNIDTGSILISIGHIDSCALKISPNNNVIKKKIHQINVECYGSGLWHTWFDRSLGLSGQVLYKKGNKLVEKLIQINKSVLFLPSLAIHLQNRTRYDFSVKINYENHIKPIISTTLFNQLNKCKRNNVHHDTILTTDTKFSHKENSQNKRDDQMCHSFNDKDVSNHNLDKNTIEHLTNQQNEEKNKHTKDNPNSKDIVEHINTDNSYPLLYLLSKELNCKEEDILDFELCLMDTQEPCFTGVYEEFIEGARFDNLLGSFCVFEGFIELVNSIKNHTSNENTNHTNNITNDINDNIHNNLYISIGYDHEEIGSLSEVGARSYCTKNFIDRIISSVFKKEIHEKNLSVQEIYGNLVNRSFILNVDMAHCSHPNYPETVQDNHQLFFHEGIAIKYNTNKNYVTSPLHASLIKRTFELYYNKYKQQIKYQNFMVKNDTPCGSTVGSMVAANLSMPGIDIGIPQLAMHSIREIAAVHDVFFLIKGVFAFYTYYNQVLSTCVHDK

SMILES: COc1ccccc1-n1c(SCC(=O)NC2CCCCC2)nc2c(c1=O)SCC2
- EC50 [1]: 6.62 µM (not active)

SMILES: CC(C)(C)c1ccc(OC(=O)N2CCCCC2)cc1
- EC50 [2]: 0.364 µM (active)
- EC50 [3]: 1.13 µM (active)
- EC50 [4]: < 0.1 µM (active)
- EC50 [5]: 44.5 µM (active)
- EC50 [6]: 1.01 µM (active)

SMILES: Cc1ccc(NC(=S)c2nc3ccccc3[nH]2)c(C)c1
- EC50 [7]: > 150 µM (not active)
- EC50 [8]: 3.65 µM (active)

SMILES: CC(=O)N1CCCc2cc(S(=O)(=O)N(CC(C)C)CC(C)C)ccc21
- IC50 [9]: > 100 µM (inactive)
- IC50 [10]: > 100 µM (not active)

SMILES: CCCN1Cc2cccc(C(=O)Nc3ccc4c(c3)OCO4)c2C1=O
- IC50 [9]: > 100 µM (inactive)
- IC50 [10]: > 100 µM (not active)

SMILES: Cn1cc(Br)c(C(=O)Nc2sc3c(c2C(N)=O)CCCC3)n1
- EC50 [11]: 13.3 µM (active)
- EC50 [2]: > 12 µM (not active)
- EC50 [3]: > 12 µM (not active)
- EC50 [4]: 13.6 µM (active)
- EC50 [5]: 0.117 µM (active)
- EC50 [6]: > 12 µM (not active)

SMILES: O=C(O)CCC(=O)N1N=C(c2c(O)nc3ccc(Cl)cc3c2-c2ccccc2)CC1c1cccs1 (centres undefined)
- IC50 [12]: > 59.6 µM (not active)
- IC50 [13]: 5.76 µM (active)
- IC50 [14]: > 73.5 µM (not active)

SMILES: O=C(O)CCC(=O)N1N=C(c2c(-c3ccccc3)c3cc(Cl)ccc3[nH]c2=O)CC1c1ccco1 (centres undefined)
- IC50 [12]: > 59.6 µM (not active)
- IC50 [13]: 13 µM (active)
- IC50 [14]: > 73.5 µM (not active)
